Test results reported in patent US20220347175A1, “PYRIDAZINONE DERIVATIVE” (Sumitomo Dainippon Pharma Co., Ltd., priority 2018, published 2022).

Columns and labels:
human Nav1.5 = biological target: T1, human Nav1.5 (Homo sapiens, UniProt Q14524); assay: Amplification of Nav1.5-derived voltage-dependent sodium current (Nav1.5 current), cell line stably expressing human Nav1.5, automated patch clamp; type: cell-based
T1 construct: expressed in transfected cells; host or cells: CHO-K1 (T-REx System, ThermoFisher Scientific)
T1 sequence (Q14524 1-2015 isoform Q14524-2): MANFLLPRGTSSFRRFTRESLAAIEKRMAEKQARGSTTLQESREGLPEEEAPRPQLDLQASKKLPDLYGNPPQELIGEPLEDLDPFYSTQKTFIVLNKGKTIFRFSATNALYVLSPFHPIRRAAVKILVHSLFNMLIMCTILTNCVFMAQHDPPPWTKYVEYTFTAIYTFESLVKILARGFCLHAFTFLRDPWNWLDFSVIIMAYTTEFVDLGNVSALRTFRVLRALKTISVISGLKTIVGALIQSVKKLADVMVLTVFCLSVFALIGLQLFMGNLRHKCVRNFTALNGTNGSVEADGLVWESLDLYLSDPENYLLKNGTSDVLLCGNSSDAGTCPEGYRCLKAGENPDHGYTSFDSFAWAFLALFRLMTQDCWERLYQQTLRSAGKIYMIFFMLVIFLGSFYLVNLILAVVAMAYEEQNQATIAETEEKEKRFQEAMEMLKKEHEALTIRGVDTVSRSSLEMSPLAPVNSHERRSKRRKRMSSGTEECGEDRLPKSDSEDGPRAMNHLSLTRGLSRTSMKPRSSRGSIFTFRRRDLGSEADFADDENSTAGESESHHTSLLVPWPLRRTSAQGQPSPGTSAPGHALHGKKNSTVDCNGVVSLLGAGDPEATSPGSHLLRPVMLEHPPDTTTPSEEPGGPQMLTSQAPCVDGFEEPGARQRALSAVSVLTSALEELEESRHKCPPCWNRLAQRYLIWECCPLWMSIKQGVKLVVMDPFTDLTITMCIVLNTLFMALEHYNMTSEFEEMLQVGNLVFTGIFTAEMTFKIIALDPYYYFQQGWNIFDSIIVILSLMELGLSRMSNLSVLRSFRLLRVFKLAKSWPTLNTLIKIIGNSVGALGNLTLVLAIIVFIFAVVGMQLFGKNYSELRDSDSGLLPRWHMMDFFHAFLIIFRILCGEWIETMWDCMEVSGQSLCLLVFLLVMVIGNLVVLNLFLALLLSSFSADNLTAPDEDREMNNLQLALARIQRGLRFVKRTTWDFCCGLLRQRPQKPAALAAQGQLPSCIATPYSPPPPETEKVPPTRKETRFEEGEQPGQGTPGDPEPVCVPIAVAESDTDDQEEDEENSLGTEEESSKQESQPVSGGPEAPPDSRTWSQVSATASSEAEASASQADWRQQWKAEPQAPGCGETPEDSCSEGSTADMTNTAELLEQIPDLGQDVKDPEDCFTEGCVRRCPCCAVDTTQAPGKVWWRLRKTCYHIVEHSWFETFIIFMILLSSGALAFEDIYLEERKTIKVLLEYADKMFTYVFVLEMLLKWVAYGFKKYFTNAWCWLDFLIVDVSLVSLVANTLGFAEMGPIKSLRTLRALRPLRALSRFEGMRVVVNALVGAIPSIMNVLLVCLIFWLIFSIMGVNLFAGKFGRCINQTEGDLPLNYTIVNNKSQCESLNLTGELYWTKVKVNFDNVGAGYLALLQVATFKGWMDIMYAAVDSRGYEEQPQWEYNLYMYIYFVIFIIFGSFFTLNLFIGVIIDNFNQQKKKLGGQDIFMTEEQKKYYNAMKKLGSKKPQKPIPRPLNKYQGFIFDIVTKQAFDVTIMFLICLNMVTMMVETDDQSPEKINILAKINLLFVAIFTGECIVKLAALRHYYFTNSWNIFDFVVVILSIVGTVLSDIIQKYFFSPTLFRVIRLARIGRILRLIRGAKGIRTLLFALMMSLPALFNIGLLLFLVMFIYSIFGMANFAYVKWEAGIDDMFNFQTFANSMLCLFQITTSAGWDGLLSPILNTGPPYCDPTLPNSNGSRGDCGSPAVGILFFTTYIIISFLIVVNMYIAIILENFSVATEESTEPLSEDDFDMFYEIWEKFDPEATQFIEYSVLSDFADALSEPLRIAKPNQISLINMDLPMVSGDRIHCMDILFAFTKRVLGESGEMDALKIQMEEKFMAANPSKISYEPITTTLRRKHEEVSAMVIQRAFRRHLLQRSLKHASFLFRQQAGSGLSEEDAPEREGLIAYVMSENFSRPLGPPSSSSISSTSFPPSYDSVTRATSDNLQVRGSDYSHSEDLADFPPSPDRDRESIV

human Nav1.1 = biological target: T2, human Nav1.1 (Homo sapiens, UniProt P35498); assay: Amplification of Nav1.1-derived voltage-dependent sodium current (Nav1.1 current), cell line stably expressing human Nav1.1, automated patch clamp; type: cell-based
T2 construct: host or cells: HEK293
Summary of the method: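 Amplification rate (%) is 100 × post-compound/pre-compound Nav1.1 peak current or AUC, minus 100. Ramp-evoked sodium currents were recorded by automated patch clamp in a human Nav1.1 HEK293 stable line, restricted to cells exceeding 500 pA, with compounds added in extracellular solution containing 1% DMSO.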

[1] = 10 μmol/L compound, change of the area under the curve of Nav1.5 current (Test Result 1), read-out: Nav1.5 current amplification rate (%)
[2] = 10 μmol/L compound, change of the area under the curve of Nav1.1 current (Test Result 1), read-out: Nav1.1 current amplification rate (%)
[3] = 10 μmol/L compound, change of the area under the curve of Nav1.5 current (Test Result 1)
[4] = 10 μmol/L compound, change of the area under the curve of Nav1.1 current (Test Result 1)
[5] = compound 3 μmol/L, CHO-K1 stably expressing human Nav1.5
[6] = compound 3 μmol/L, HEK293 stably expressing human Nav1.1
[7] = compound 3 μmol/L, CHO-K1 stably expressing human Nav1.5, read-out: Nav1.5 current amplification rate (%)
[8] = compound 3 μmol/L, HEK293 stably expressing human Nav1.1, read-out: Nav1.1 current amplification rate (%)
[9] = compound 1 μmol/L, CHO-K1 stably expressing human Nav1.5
[10] = compound 1 μmol/L, HEK293 stably expressing human Nav1.1

activation at 10 µM (human Nav1.1; [2])	Nav1.1 current amplification rate (%) (human Nav1.1; [4])	Compound	activation at 10 µM (human Nav1.5; [1])	Nav1.5 current amplification rate (%) (human Nav1.5; [3])	further results
179%	–	Cc1c(N2CCC3(CCC3)C2)nn(CC(=O)Nc2ccn3ccnc3c2)c(=O)c1C [Example 209]	16%	–	–
–	180%	CC1CCN(c2ccc(=O)n(CC(=O)Nc3ccc(C(F)(F)F)nc3)n2)CC1 [Example 59]	–	56%	–
150%	–	Cc1c(N2CCC3(CCCC3)C2)nn(CC(=O)Nc2ccn3ccnc3c2)c(=O)c1C [Example 166]	45%	–	–
44%	–	Cc1c(N2CCC(C)(C)CC2)nn(CC(=O)Nc2ccn3ccnc3c2)c(=O)c1C [Example 178]	1%	–	–
–	260%	CC1CC=C(c2ccc(=O)n(CC(=O)Nc3cc(F)c4ocnc4c3)n2)CC1 (racemic) [Example 241]	–	26%	–
197%	–	Cc1c(N2CCC(C)CC2)nn(CC(=O)Nc2ccc(C#N)nc2)c(=O)c1C [Example 100]	56%	–	–
–	–	COc1cnc(C)c(N2CCN(C(=O)Cn3nc(C4=CCC(C)CC4)ccc3=O)CC2)c1 (centres unmarked) [Example 418]	–	–	Nav1.5 current amplification rate (%) (human Nav1.5; [5]): 7%; Nav1.1 current amplification rate (%) (human Nav1.1; [6]): 105%
–	196%	CC1(C)CC=C(c2ccc(=O)n(CC(=O)N3CCN(c4cccnc4)CC3)n2)CC1 [Example 440]	–	7%	–
–	342%	CC1CC=C(c2ccc(=O)n(CC(=O)N3CCN(c4cncc(F)c4)CC3)n2)CC1 (racemic) [Example 263]	–	32%	–
–	250%	COc1cc(C2=CCC(C)CC2)nn(CC(=O)Nc2ccc3ocnc3c2)c1=O (centres unmarked) [Example 449]	–	12%	–
–	–	CC1CC=C(c2ccc(=O)n(CC(=O)N3CCc4c(CN5CCOCC5)cccc43)n2)CC1 (racemic) [Example 270]	–	–	Nav1.5 current amplification rate (%) (human Nav1.5; [5]): 78%; Nav1.1 current amplification rate (%) (human Nav1.1; [6]): 481%
–	243%	O=C(Cn1nc(C2=CCC(F)(F)CC2)ccc1=O)N1CCc2c(N3CCOCC3)cccc21 [Example 469]	–	25%	–
181%	–	O=C(Cn1nc(N2CCCC3(CCC3)C2)ccc1=O)Nc1ccc2ocnc2c1 [Example 130]	3%	–	–
–	73%	CC1CCN(c2ccc(=O)n(CC(=O)Nc3ccc4c(c3)NC(=O)C4)n2)CC1 [Example 86]	–	3%	–
212%	–	CN(C)c1cc(N2CCC(C)(C)CC2)nn(CC(=O)Nc2ccn3ccnc3c2)c1=O [Example 211]	8%	–	–
246%	–	O=C(Cn1nc(N2CCC3(CCCC3)C2)ccc1=O)Nc1cccc(-n2ccnc2)c1 [Example 123]	30%	–	–
–	–	COc1ccc(N2CCN(C(=O)Cn3nc(C4=CCC(C(F)(F)F)CC4)ccc3=O)CC2)cn1 (centres unmarked) [Example 511]	–	–	activation at 3 µM (human Nav1.5; [7]): 6%; activation at 3 µM (human Nav1.1; [8]): 37%
–	–	CC1CC=C(c2ccc(=O)n(CC(=O)Nc3ccc(C#N)nc3)n2)CC1 (racemic) [Example 360]	–	–	Nav1.5 current amplification rate (%) (human Nav1.5; [9]): 100%; Nav1.1 current amplification rate (%) (human Nav1.1; [10]): 200%
–	–	O=C(Cn1nc(N2CCC3(CCC3)C2)ccc1=O)Nc1ccc2c(c1)OCCO2 [Example 191]	–	–	activation at 3 µM (human Nav1.5; [7]): 2%; activation at 3 µM (human Nav1.1; [8]): 52%
–	–	CC1CC=C(c2ccc(=O)n(CC(=O)Nc3ccn4cncc4c3)n2)CC1 (racemic) [Example 338]	–	–	Nav1.5 current amplification rate (%) (human Nav1.5; [9]): 49%; Nav1.1 current amplification rate (%) (human Nav1.1; [10]): 241%
–	93%	CC1CC=C(c2ccc(=O)n(CC(=O)N3CCN(c4cnn(C)c4)CC3)n2)CC1 (centres unmarked) [Example 415]	–	2%	–
–	–	Cc1cc(NC(=O)Cn2nc(C3=CCC(C)CC3)ccc2=O)cn2ncnc12 (racemic) [Example 349]	–	–	Nav1.5 current amplification rate (%) (human Nav1.5; [9]): 24%; Nav1.1 current amplification rate (%) (human Nav1.1; [10]): 101%
–	24%	O=C(Cn1nc(C2=CCCCC2)ccc1=O)Nc1ccn2ccnc2c1 [Example 458]	–	0%	–
320%	–	CC1(C)CC=C(c2ccc(=O)n(CC(=O)Nc3ccc4ocnc4c3)n2)CC1 [Example 445, N-(1,3-benzooxazol-5-yl)-2-[3-(4,4-dimethylcyclohex-1-en-1-yl)-6-oxopyridazin-1(6H)-yl]acetamide]	52%	–	–
–	–	CC1CC=C(c2ccc(=O)n(CC(=O)Nc3ccc4cnnn4c3)n2)CC1 (racemic) [Example 345]	–	–	Nav1.5 current amplification rate (%) (human Nav1.5; [9]): 46%; Nav1.1 current amplification rate (%) (human Nav1.1; [10]): 232%

activation at 10 µM (human Nav1.1; [2])	Nav1.1 current amplification rate (%) (human Nav1.1; [4])	Compound	activation at 10 µM (human Nav1.5; [1])	Nav1.5 current amplification rate (%) (human Nav1.5; [3])	further results
252%	–	Cc1cc(=O)n(CC(=O)Nc2ccc3ocnc3c2)nc1N1CCC2(CCCC2)C1 [Example 194]	33%	–	–
–	122%	Cc1ccc(-c2ccc(=O)n(CC(=O)N3CCc4cc(N5CCOCC5)ccc43)n2)cc1 [Example 158]	–	30%	–
–	–	COC1CN(Cc2nc3cc(NC(=O)Cn4nc(C5=CCC(C)CC5)ccc4=O)ccc3o2)C1 (racemic) [Example 332]	–	–	Nav1.5 current amplification rate (%) (human Nav1.5; [5]): 9%; Nav1.1 current amplification rate (%) (human Nav1.1; [6]): 15%
–	–	CC1CC=C(c2ccc(=O)n(CC(=O)Nc3ccnc(N4CCOCC4)c3F)n2)CC1 (racemic) [Example 383]	–	–	Nav1.5 current amplification rate (%) (human Nav1.5; [9]): 51%; Nav1.1 current amplification rate (%) (human Nav1.1; [10]): 84%
–	–	CC1CC=C(c2ccc(=O)n(CC(=O)Nc3ccc4oc(CN5CCC5)nc4c3)n2)CC1 (racemic) [Example 333]	–	–	Nav1.5 current amplification rate (%) (human Nav1.5; [5]): 13%; Nav1.1 current amplification rate (%) (human Nav1.1; [6]): 25%
–	102%	COc1cnc(C2=CCN(C(=O)Cn3nc(C4=CCC(C)CC4)ccc3=O)CC2)cn1 (racemic) [Example 399]	–	11%	–
50%	–	CC1CCN(c2ccc(=O)n(CC(=O)N3CCc4cc(N5CCN(C)CC5)ccc43)n2)CC1 [Example 220]	5%	–	–
–	–	CC1CC=C(c2ccc(=O)n(CC(=O)N3CCc4c(Cn5ccnc5)cccc43)n2)CC1 (racemic) [Example 286]	–	–	Nav1.5 current amplification rate (%) (human Nav1.5; [9]): 579%; Nav1.1 current amplification rate (%) (human Nav1.1; [10]): 848%
–	–	CC1CC=C(c2ccc(=O)n(CC(=O)N3CCc4c(CN5CCCC5)cccc43)n2)CC1 (racemic) [Example 271]	–	–	Nav1.5 current amplification rate (%) (human Nav1.5; [5]): 70%; Nav1.1 current amplification rate (%) (human Nav1.1; [6]): 48%
–	–	CC1CC=C(c2ccc(=O)n(CC(=O)N3CCc4c(C5CN(C(=O)C(C)(C)O)C5)cccc43)n2)CC1 (racemic) [Example 306]	–	–	Nav1.5 current amplification rate (%) (human Nav1.5; [5]): 327%; Nav1.1 current amplification rate (%) (human Nav1.1; [6]): 532%
219%	–	Cc1cc(N2CCC3(CCCC3)C2)nn(CC(=O)Nc2ccc3ocnc3c2)c1=O [Example 193]	0%	–	–
–	365%	COc1cc(=O)n(CC(=O)Nc2ccc3ocnc3c2)nc1C1=CCC(C)(C)CC1 [Example 451]	–	30%	–
107%	–	CC1CCN(c2ccc(=O)n(CC(=O)Nc3ccc4c(c3)OCC4)n2)CC1 [Example 170]	1%	–	–
–	13%	CC1CC=C(c2ccc(=O)n(CC(=O)N3CCC(c4ccccn4)CC3)n2)CC1 (racemic) [Example 260]	–	−6%	–
–	–	CC1(C)CC=C(c2ccc(=O)n(CC(=O)Nc3ccc4ncnn4c3)n2)CC1 [Example 428, 2-[3-(4,4-dimethylcyclohex-1-en-1-yl)-6-oxopyridazin-1(6H)-yl]-N-([1,2,4]triazolo[1,5-a]pyridin-6-yl)acetamide]	–	–	activation at 1 µM (human Nav1.5; compound 1 μmol/L, CHO-K1 stably expressing human Nav1.5, read-out: Nav1.5 current amplification rate (%)): 23%; activation at 1 µM (human Nav1.1; compound 1 μmol/L, HEK293 stably expressing human Nav1.1, read-out: Nav1.1 current amplification rate (%)): 109%
–	15%	O=C(Cn1nc(-c2ccc(C(F)(F)F)nc2)ccc1=O)Nc1ccc2ocnc2c1 [Example 453]	–	1%	–
235%	–	Cc1cc(=O)n(CC(=O)Nc2ccc3ocnc3c2)nc1N1CCC2(CCC2)C1 [Example 205]	20%	–	–
–	–	CC1CC=C(c2ccc(=O)n(CC(=O)N3CCc4c(-c5ccn(C)n5)cccc43)n2)CC1 (racemic) [Example 252]	–	–	Nav1.5 current amplification rate (%) (human Nav1.5; [5]): 31%; Nav1.1 current amplification rate (%) (human Nav1.1; [6]): 254%
21%	–	O=C(Cn1nc(N2CCC3C(C2)C3(F)F)ccc1=O)Nc1ccc2ocnc2c1 (centres unmarked) [Example 161]	-1%	–	–
3%	–	CC1CCN(c2ccc(=O)n(CC(=O)N3CCc4cc(C(F)(F)F)ccc43)n2)CC1 [Example 189]	-2%	–	–
–	98%	CC1CC=C(c2ccc(=O)n(CC(=O)N3CCN(c4ccccn4)CC3)n2)CC1 (racemic) [Example 394]	–	1%	–
118%	–	COc1cc(N2CCC(C)(C)CC2)nn(CC(=O)N2CCc3c(N4CCOCC4)cccc32)c1=O [Example 224]	11%	–	–
–	255%	CC1CCN(c2ccc(=O)n(CC(=O)Nc3ccc4scnc4c3)n2)CC1 [Example 87]	–	22%	–
44%	–	O=C(Cn1nc(N2CCCC3(CCC3)C2)ccc1=O)Nc1cccc(-c2nccs2)c1 [Example 134]	-5%	–	–
